From US20240041042A1, “1-(PYRIDYL)-5-AZINYLPYRAZOLE DERIVATIVES, AND THEIR USE FOR CONTROL OF UNDESIRED PLANT GROWTH” (Bayer Aktiengesellschaft, priority 2020, published 2024)
Where two headings read alike, the source gives them in different places.

Assays:
Format in all cases: in vivo
[1] = tested on: Alopecurus myosuroides (ALOMY); assay: Pre-emergence herbicidal action against ALOMY; details: scored visually after about 3 weeks, 100% = plants have died
Summary of the method: (§1)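 Pre-emergence soil-surface spray of compound, formulated as wettable powder or emulsion concentrate, in aqueous suspension or emulsion with 0.5% additive (600 l/ha; rate 320 g/ha or less). Activity rated visually after roughly 3 weeks in the greenhouse as a percentage of untreated controls, 0% meaning no difference.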

[2] = tested on: Amaranthus retroflexus (AMARE); assay: Pre-emergence herbicidal action against AMARE; details: visual scoring after about 3 weeks vs untreated controls
Summary of the method: as §1

[3] = tested on: Avena fatua (AVEFA); assay: Pre-emergence herbicidal action against AVEFA; details: visual scoring after about 3 weeks vs untreated controls
Summary of the method: as §1

[4] = tested on: Digitaria sanguinalis (DIGSA); assay: Pre-emergence herbicidal action against DIGSA
Summary of the method: as §1

[5] = tested on: Echinochloa crus-galli (ECHCG); assay: Pre-emergence herbicidal action against ECHCG; details: dosage 320 g/ha
Summary of the method: as §1

[6] = tested on: Lolium rigidum (LOLRI); assay: Pre-emergence herbicidal action against LOLRI
Summary of the method: as §1

[7] = tested on: Matricaria inodora (MATIN); assay: Pre-emergence herbicidal action against MATIN; details: dosage 320 g/ha
Summary of the method: as §1

[8] = tested on: Pharbitis purpurea (PHBPU); assay: Pre-emergence herbicidal action against PHBPU; details: dosage 320 g/ha
Summary of the method: as §1

[9] = tested on: Polygonum convolvulus (POLCO); assay: Pre-emergence herbicidal action against POLCO
Summary of the method: as §1

[10] = tested on: Setaria viridis (SETVI); assay: Pre-emergence herbicidal action against SETVI
Summary of the method: as §1

[11] = tested on: Verconica persica (VERPE); assay: Pre-emergence herbicidal action against VERPE; details: dosage 320 g/ha
Summary of the method: as §1

[12] = tested on: Zea mays (ZEAMX); details: pre-emergence, 80 g/ha, crop plant compatibility, in comparison to untreated controls
Summary of the method: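 Scoring: visual, % of untreated control, about 3 weeks after a pre-emergence application to the soil surface. Application used WP or EC formulations diluted in water with 0.5% additive at 600 l/ha; dosage levels are marked by suffixes a, b and c.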

[13] = tested on: Alopecurus myosuroides (ALOMY); assay: Post-emergence herbicidal action against ALOMY; details: visual rating about 3 weeks after treatment vs untreated controls (100% = plants have died, 0% = like control plants)
Summary of the method: (§2)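 Greenhouse plants sprayed at the one-leaf stage, 2–3 weeks after sowing, with WP or EC formulations plus 0.5% additive at 600 l/ha water. Activity rated visually after about 3 weeks versus untreated controls (100% = dead, 0% = like control), at 320 g/ha or lower.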

[14] = tested on: Amaranthus retroflexus (AMARE); assay: Post-emergence herbicidal action against AMARE
Summary of the method: as §2

[15] = tested on: Digitaria sanguinalis (DIGSA); assay: Post-emergence herbicidal action against DIGSA; details: visual rating about 3 weeks after treatment
Summary of the method: as §2

[16] = tested on: Echinochloa crus-galli (ECHCG); assay: Post-emergence herbicidal action against ECHCG
Summary of the method: as §2

[17] = tested on: Lolium rigidum (LOLRI); assay: Post-emergence herbicidal action against LOLRI
Summary of the method: as §2

[18] = tested on: Pharbitis purpurea (PHBPU); assay: Post-emergence herbicidal action against PHBPU
Summary of the method: as §2

[19] = tested on: Polygonum convolvulus (POLCO); assay: Post-emergence herbicidal action against POLCO
Summary of the method: as §2

[20] = tested on: Setaria viridis (SETVI); assay: Post-emergence herbicidal action against SETVI
Summary of the method: as §2

[21] = tested on: Verconica persica (VERPE); assay: Post-emergence herbicidal action against VERPE
Summary of the method: as §2

[22] = tested on: Viola tricolor (VIOTR); assay: Post-emergence herbicidal action against VIOTR
Summary of the method: as §2

[23] = tested on: Oryza sativa (ORYSA); details: crop plant compatibility
Summary of the method: (§3)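 Effects were read visually as % versus untreated controls (0% = no effect, 100% = death) about 3 weeks post-treatment. Application was a post-emergence spray at the one-leaf stage of WP/EC formulations with 0.5% additive at 600 l/ha. Different dosages are denoted a, b and c.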

[24] = tested on: Viola tricolor (VIOTR); assay: Pre-emergence herbicidal action against VIOTR
Summary of the method: as §1

[25] = tested on: Matricaria inodora (MATIN); assay: Post-emergence herbicidal action against MATIN
Summary of the method: as §2

[26] = tested on: Zea mays (ZEAMX); details: for Post-emergence action against ZEAMX in % (crop plant compatibility): 20 g/ha, effect in comparison to untreated controls
Summary of the method: as §3

[27] = tested on: Avena fatua (AVEFA); assay: Post-emergence herbicidal action against AVEFA; details: visual rating about 3 weeks after treatment
Summary of the method: as §2

[28] = tested on: Abutilon theophrasti (ABUTH); assay: Post-emergence herbicidal action against ABUTH; details: 80 g/ha, visual rating about 3 weeks after treatment vs untreated controls (100% = plants have died, 0% = like control plants)
Summary of the method: as §2

[29] = 80 g/ha, visual scoring after about 3 weeks vs untreated controls
[30] = 80 g/ha, visual rating about 3 weeks after treatment vs untreated controls (100% = plants have died, 0% = like control plants)
[31] = 320 g/ha, visual rating about 3 weeks after treatment
[32] = 80 g/ha, effect in comparison to untreated controls

| SMILES | Pre-emergence action against ALOMY ([1]; 80 g/ha) | Pre-emergence action against ALOMY ([1]; 320 g/ha) | Pre-emergence action against AMARE in % ([2]; 80 g/ha) | Pre-emergence action against AMARE in % ([2]; 320 g/ha) | Pre-emergence action against AVEFA in % ([3]; 320 g/ha) | Pre-emergence action against DIGSA in % [4, 29] | Pre-emergence action against DIGSA in % ([4]; dosage 320 g/ha) | Pre-emergence action against ECHCG in % [5] | Pre-emergence action against LOLRI in % ([6]; dosage 320 g/ha) | Pre-emergence action against MATIN in % [7] | Pre-emergence action against PHBPU in % [8] | Pre-emergence action against POLCO in % ([9]; dosage 320 g/ha) | Pre-emergence action against SETVI in % ([10]; dosage 320 g/ha) | Pre-emergence action against VERPE in % [11] | Pre-emergence action against ZEAMX in % [12] | Post-emergence action against DIGSA in % ([15]; 80 g/ha) | Post-emergence action against POLCO in % ([19]; dosage 80 g/ha) | Post-emergence action against VIOTR in % ([22]; 80 g/ha) | Post-emergence action against ORYSA in % [23, 32] | Pre-emergence action against VIOTR in % ([24]; 320 g/ha, Viola tricolor) | further results |
| --- | --- | --- | --- | --- | --- | --- | --- | --- | --- | --- | --- | --- | --- | --- | --- | --- | --- | --- | --- | --- | --- |
| COC(=O)CCOC(=O)COc1nn(-c2ccccn2)c(-c2ccc(F)nc2)c1Br [Example I-247] | 80% | 100% | 80% | 100% | 80% | 100% | 100% | 100% | 100% | 90% | 80% | 90% | 100% | 90% | 20% | 80% | 80% | 80% | 10% |  | Post-emergence action against ALOMY in % ([13]; 320 g/ha): 80%; Post-emergence action against AMARE in % [14, 30]: 80%; Post-emergence action against AMARE in % [14, 31]: 80%; Post-emergence action against DIGSA in % ([15]; 320 g/ha): 80%; Post-emergence action against ECHCG in % ([16]; dosage 80 g/ha): 80%; Post-emergence action against ECHCG in % ([16]; dosage 320 g/ha): 80%; Post-emergence action against LOLRI in % ([17]; dosage 320 g/ha): 80%; Post-emergence action against PHBPU in % ([18]; dosage 80 g/ha): 90%; Post-emergence action against PHBPU in % ([18]; dosage 320 g/ha): 90%; Post-emergence action against POLCO in % ([19]; dosage 320 g/ha): 80%; Post-emergence action against SETVI in % ([20]; dosage 320 g/ha): 80%; Post-emergence action against VERPE in % ([21]; 320 g/ha, VERPE): 80%; Post-emergence action against VERPE in % ([21]; dosage 80 g/ha): 80%; Post-emergence action against VIOTR in % ([22]; 320 g/ha): 80% |
| N#CCOC(=O)COc1nn(-c2ncccc2F)c(-c2ccc(F)nc2)c1Br [Example I-30] | 100% | 100% | 100% | 100% | 100% | 100% | 100% | 100% | 100% | 90% | 90% | 90% | 100% | 90% | 10% | 90% |  | 80% |  | 100% | Pre-emergence action against LOLRI in % ([6]; dosage 80 g/ha): 90%; Pre-emergence action against POLCO in % ([9]; dosage 80 g/ha): 80%; Pre-emergence action against SETVI in % ([10]; dosage 80 g/ha): 90%; Pre-emergence action against VIOTR in % ([24]; dosage 80 g/ha): 90%; Post-emergence action against ALOMY in % ([13]; 80 g/ha): 90%; Post-emergence action against ECHCG in % ([16]; dosage 80 g/ha): 80%; Post-emergence action against MATIN in % ([25]; dosage 80 g/ha): 90%; Post-emergence action against ZEAMX in % (crop plant compatibility) [26]: 20%; Post-emergence action against ZEAMX in % ([26]; crop plant compatibility, 80 g/ha, effect vs untreated controls): 20% |
| COC(=O)CCOC(=O)C(C)Oc1nn(-c2ccccn2)c(-c2ccc(F)nc2)c1C(F)(F)F (stereo not drawn) [Example I-293] | 90% | 100% |  | 100% | 90% | 80% | 100% | 90% | 100% | 80% | 80% | 80% |  |  | 20% |  | 80% | 80% | 0% | 100% | Pre-emergence action against AVEFA in % ([3]; 80 g/ha): 80%; Pre-emergence action against LOLRI in % ([6]; dosage 80 g/ha): 100%; Pre-emergence action against VIOTR in % ([24]; dosage 80 g/ha): 80%; Post-emergence action against ALOMY in % ([13]; 80 g/ha): 90%; Post-emergence action against ALOMY in % ([13]; 320 g/ha): 90%; Post-emergence action against AMARE in % [14, 31]: 80%; Post-emergence action against AVEFA in % ([27]; 80 g/ha): 80%; Post-emergence action against AVEFA in % ([27]; 320 g/ha): 90%; Post-emergence action against DIGSA in % ([15]; 320 g/ha): 80%; Post-emergence action against ECHCG in % ([16]; dosage 320 g/ha): 80%; Post-emergence action against LOLRI in % ([17]; dosage 80 g/ha): 80%; Post-emergence action against LOLRI in % ([17]; dosage 320 g/ha): 80%; Post-emergence action against MATIN in % ([25]; dosage 320 g/ha): 80%; Post-emergence action against PHBPU in % ([18]; dosage 320 g/ha): 80%; Post-emergence action against POLCO in % ([19]; dosage 320 g/ha): 80%; Post-emergence action against SETVI in % ([20]; dosage 320 g/ha): 80%; Post-emergence action against VIOTR in % ([22]; 320 g/ha): 80% |
| COC(=O)[C@@H](C)Oc1nn(-c2ccccn2)c(-c2ccnc(F)c2)c1Cl [Example I-19] | 100% | 100% | 100% | 100% | 100% | 100% | 100% | 100% | 100% | 90% | 90% | 100% | 100% | 100% | 0% | 80% | 90% | 90% | 0% | 100% | Pre-emergence action against AVEFA in % ([3]; 80 g/ha): 80%; Pre-emergence action against POLCO in % ([9]; dosage 80 g/ha): 90%; Pre-emergence action against SETVI in % ([10]; dosage 80 g/ha): 100%; Pre-emergence action against VIOTR in % ([24]; dosage 80 g/ha): 100%; Post-emergence action against ABUTH in % [28]: 80%; Post-emergence action against ALOMY in % ([13]; 80 g/ha): 100%; Post-emergence action against AMARE in % [14, 30]: 80%; Post-emergence action against AVEFA in % ([27]; 80 g/ha): 90%; Post-emergence action against LOLRI in % ([17]; dosage 80 g/ha): 80%; Post-emergence action against PHBPU in % ([18]; dosage 80 g/ha): 90%; Post-emergence action against SETVI in % ([20]; dosage 80 g/ha): 80%; Post-emergence action against ORYSA in % ([23]; 20 g/ha, effect vs untreated controls): 0%; Post-emergence action against ZEAMX in % (crop plant compatibility) [26]: 0% |
